Data on 10 compounds can be found in patent US12441762B2, “Hepatitis c virus NS3/4A protease inhibitors” (priority 2019, dated 2025).

For assay [1], the target named is T1, HCV NS3/4A protease D168A variant (Hepatitis C virus genotype 1a, UniProt P27958, C1185S/D1194A).
T1 construct: His-tag (cleaved yes); made in house; host or cells: Escherichia coli BL21(DE3), PET28a vector
Kind of assay: biochemical. The assay is classed as biochemical. Here is the method:
(§1) The HCV GT1a NS3/4A protease gene described in the Bristol Myers Squibb patent was synthesized by GenScript and cloned into a PET28a expression vector. Cys159 was mutated to a serine residue to prevent disulfide bond formation and facilitate crystallization. The D168A gene was engineered using the site-directed mutagenesis protocol from Stratagene. Protein expression and purification were carried out as previously described.
(§2) Km constants for GT1 and D168A protease were previously determined. […] Inner filter effect corrections were applied to the initial velocities (Vo) at each substrate concentration. Vo versus substrate concentration graphs were globally fit to the Michaelis-Menten equation to obtain the Km value.
(§3) For each assay, 2 nM of NS3/4A protease (GT1a and D168A) was pre-incubated at room temperature for 1 h with increasing concentration of inhibitors in assay buffer (50 mM Tris, 5% glycerol, 10 mM DTT, 0.6 mM LDAO, and 4% dimethyl sulfoxide, pH 7.5). Inhibition assays were performed in non-binding surface 96-well black half-area plates (Corning) in a reaction volume of 60 μL. […] Three independent data sets were collected for each inhibitor with each protease construct.

The target of assay [2] is T2, wild-type HCV NS3/4A protease (GT1a) (Hepatitis C virus genotype 1a, UniProt P27958, C1185S).
T2 construct: His-tag (cleaved yes); made in house; host or cells: Escherichia coli BL21(DE3), PET28a vector
T2 sequence (P27958 1027-1208 C1185S): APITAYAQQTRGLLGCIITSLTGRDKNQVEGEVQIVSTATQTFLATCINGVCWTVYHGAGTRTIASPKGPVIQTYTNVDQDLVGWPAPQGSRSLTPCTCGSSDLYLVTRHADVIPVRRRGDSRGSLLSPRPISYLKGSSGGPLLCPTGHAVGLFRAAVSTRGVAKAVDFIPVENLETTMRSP
Kind of assay: biochemical. The format is biochemical. Here is the method:
as §1, §2, §3

T1 sequence (P27958 1027-1208 C1185S/D1194A): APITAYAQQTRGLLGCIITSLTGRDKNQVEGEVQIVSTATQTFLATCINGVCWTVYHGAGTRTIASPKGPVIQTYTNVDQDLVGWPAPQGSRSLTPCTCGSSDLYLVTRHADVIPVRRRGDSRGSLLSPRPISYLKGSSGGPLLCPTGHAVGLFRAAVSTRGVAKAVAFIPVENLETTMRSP

Consider `COc1ccc2nc(C)c(O[C@@H]3C[C@H]4C(=O)N[C@]5(C(=O)NS(=O)(=O)C6(C)CC6)C[C@H]5/C=C\CCCCC[C@H](NC(=O)O[C@@H](C)C(F)(F)F)C(=O)N4C3)nc2c1` [NR02-23, (S)-1,1,1-Trifluoropropan-2-yl ((2R,6S,13aS,14aR,16aS,Z)-2-((7-methoxy-3-methylquinoxalin-2-yl)oxy)-14a-(((1-methylcyclopropyl)sulfonyl)carbamoyl)-5,16-dioxo-1,2,3,5,6,7,8,9,10,11,13a,14,14a,15,16,16a-hexadecahydrocyclopropa[e]pyrrolo [1,2-a][1,4]diazacyclopentadecin-6-yl)carbamate], for which the Ki amounted to 0.04 ± 0.006 µM in assay [1] and 0.00074 ± 0.0002 µM in assay [2].

Regarding `COc1ccc2nc(C)c(O[C@@H]3C[C@H]4C(=O)N[C@]5(C(=O)NS(=O)(=O)C6(C)CC6)C[C@H]5/C=C\CCCCC[C@H](NC(=O)O[C@@H](C)C5CC5)C(=O)N4C3)nc2c1` [NR02-25, (S)-1-Cyclopropylethyl ((2R,6S,13aS,14aR,16aS,Z)-2-((7-methoxy-3-methylquinoxalin-2-yl)oxy)-14a-(((1-methylcyclopropyl)sulfonyl)carbamoyl)-5,16-dioxo-1,2,3,5,6,7,8,9,10,11,13a,14,14a,15,16,16a-hexadecahydrocyclopropa[e]pyrrolo [1,2-a][1,4]diazacyclopentadecin-6-yl)carbamate], the inhibition constant Ki in assay [1] was found to be 0.0319 ± 0.0018 µM; in assay [2] it was 0.00184 ± 0.00012 µM.

With `COc1ccc2nc(C)c(O[C@@H]3C[C@H]4C(=O)N[C@]5(C(=O)NS(=O)(=O)C6(C)CC6)C[C@H]5/C=C\CCCCC[C@H](NC(=O)O[C@H](C)C5CC5)C(=O)N4C3)nc2c1` [NR02-26, (R)-1-Cyclopropylethyl ((2R,6S,13aS,14aR,16aS,Z)-2-((7-methoxy-3-methylquinoxalin-2-yl)oxy)-14a-(((1-methylcyclopropyl)sulfonyl)carbamoyl)-5,16-dioxo-1,2,3,5,6,7,8,9,10,11,13a,14,14a,15,16,16a-hexadecahydrocyclopropa[e]pyrrolo[1,2-a][1,4]diazacyclopentadecin-6-yl)carbamate], the Ki was found to be 0.0235 ± 0.0013 µM in assay [1] and 0.0015 ± 6e-05 µM in assay [2].

In the case of `COc1ccc2nc(C(F)(F)F)c(O[C@@H]3C[C@H]4C(=O)N[C@]5(C(=O)NS(=O)(=O)C6(C)CC6)C[C@H]5/C=C\CCCCC[C@H](NC(=O)OC5(C)CC5)C(=O)N4C3)nc2c1` [NR02-31, 1-Methylcyclopropyl ((2R,6S,13aS,14aR,16aS,Z)-2-((7-methoxy-3-(trifluoromethyl)quinoxalin-2-yl)oxy)-14a-(((1-methylcyclopropyl)sulfonyl)carbamoyl)-5,16-dioxo-1,2,3,5,6,7,8,9,10,11,13a,14,14a,15,16,16a-hexadecahydrocyclopropa[e]pyrrolo[1,2-a][1,4]diazacyclopentadecin-6-yl)carbamate], the Ki was 0.0413 ± 0.0073 µM in assay [1] and 0.0114 ± 0.00084 µM in assay [2].

Consider `COc1ccc2nc(C(F)(F)F)c(O[C@@H]3C[C@H]4C(=O)N[C@]5(C(=O)NS(=O)(=O)C6(C)CC6)C[C@H]5/C=C\CCCCC[C@H](NC(=O)O[C@H](C)C5CC5)C(=O)N4C3)nc2c1` [NR02-34, (R)-1-Cyclopropylethyl ((2R,6S,13aS,14aR,16aS,Z)-2-((7-methoxy-3-(trifluoromethyl)quinoxalin-2-yl)oxy)-14a-(((1-methylcyclopropyl)sulfonyl)carbamoyl)-5,16-dioxo-1,2,3,5,6,7,8,9,10,11,13a,14,14a,15,16,16a-hexadecahydrocyclopropa[e]pyrrolo[1,2-a][1,4]diazacyclopentadecin-6-yl)carbamate], for which the results for the Ki in assay [1] and in assay [2] were 0.0262 ± 0.0006 µM and 0.0118 ± 0.0014 µM, respectively.

In the case of `COc1ccc2nc(C(F)(F)F)c(O[C@@H]3C[C@H]4C(=O)N[C@]5(C(=O)NS(=O)(=O)C6(C)CC6)C[C@H]5/C=C\CCCCC[C@H](NC(=O)OCC(C)C)C(=O)N4C3)nc2c1` [NR02-41, Isobutyl ((2R,6S,13aS,14aR,16aS,Z)-2-((7-methoxy-3-(trifluoromethyl)quinoxalin-2-yl)oxy)-14a-(((1-methylcyclopropyl)sulfonyl)carbamoyl)-5,16-dioxo-1,2,3,5,6,7,8,9,10,11,13a,14,14a,15,16,16a-hexadecahydrocyclopropa[e]pyrrolo[1,2-a][1,4]diazacyclopentadecin-6-yl)carbamate], the Ki in assay [1] stood at 0.0149 ± 0.0014 µM; in assay [2] it was 0.00401 ± 0.00046 µM.

For `CCC(C)(C)OC(=O)N[C@H]1CCCCC/C=C\[C@@H]2C[C@@]2(C(=O)NS(=O)(=O)C2(C)CC2)NC(=O)[C@@H]2C[C@@H](Oc3nc4cc(OC)ccc4nc3C(F)(F)F)CN2C1=O` [NR02-47, tert-Pentyl ((2R,6S,13aS,14aR,16aS,Z)-2-((7-methoxy-3-(trifluoromethyl)quinoxalin-2-yl)oxy)-14a-(((1-methylcyclopropyl)sulfonyl)carbamoyl)-5,16-dioxo-1,2,3,5,6,7,8,9,10,11,13a,14,14a,15,16,16a-hexadecahydrocyclopropa[e]pyrrolo[1,2-a][1,4]diazacyclopentadecin-6-yl)carbamate], the Ki in assay [1] worked out at 0.0151 ± 0.001 µM; in assay [2], 0.00267 ± 0.00023 µM.

Consider `COc1ccc2nc(C(F)(F)F)c(O[C@@H]3C[C@H]4C(=O)N[C@]5(C(=O)NS(=O)(=O)C6(C)CC6)C[C@H]5/C=C\CCCCC[C@H](NC(=O)OCC(C)(C)C)C(=O)N4C3)nc2c1` [NR02-48, Neopentyl ((2R,6S,13aS,14aR,16aS,Z)-2-((7-methoxy-3-(trifluoromethyl)quinoxalin-2-yl)oxy)-14a-(((1-methylcyclopropyl)sulfonyl)carbamoyl)-5,16-dioxo-1,2,3,5,6,7,8,9,10,11,13a,14,14a,15,16,16a-hexadecahydrocyclopropa[e]pyrrolo[1,2-a][1,4]diazacyclopentadecin-6-yl)carbamate], for which the Ki in assay [1] came to 0.013 ± 0.0016 µM; in assay [2], 0.00294 ± 0.00014 µM.

As to `COc1ccc2nc(C)c(O[C@@H]3C[C@H]4C(=O)N[C@]5(C(=O)NS(=O)(=O)C6(C)CC6)C[C@H]5/C=C\CCCCC[C@H](NC(=O)OCC5(C(F)(F)F)CC5)C(=O)N4C3)nc2c1` [NR02-49, (1-(Trifluoromethyl)cyclopropyl)methyl ((2R,6S,13aS,14aR,16aS,Z)-2-((7-methoxy-3-methylquinoxalin-2-yl)oxy)-14a-(((1-methylcyclopropyl)sulfonyl)carbamoyl)-5,16-dioxo-1,2,3,5,6,7,8,9,10,11,13a,14,14a,15,16,16a-hexadecahydrocyclopropa[e]pyrrolo[1,2-a][1,4]diazacyclopentadecin-6-yl)carbamate], the inhibitory constant (Ki) in assay [1] is 0.0274 ± 0.0012 µM; in assay [2], 0.0009 ± 0.0001 µM.

`COc1ccc2nc(C(F)(F)F)c(O[C@@H]3C[C@H]4C(=O)N[C@]5(C(=O)NS(=O)(=O)C6(C)CC6)C[C@H]5/C=C\CCCCC[C@H](NC(=O)OCC5(C(F)(F)F)CC5)C(=O)N4C3)nc2c1` [NR02-50, (1-(Trifluoromethyl)cyclopropyl)methyl ((2R,6S,13aS,14aR,16aS,Z)-2-((7-methoxy-3-(trifluoromethyl)quinoxalin-2-yl)oxy)-14a-(((1-methylcyclopropyl)sulfonyl)carbamoyl)-5,16-dioxo-1,2,3,5,6,7,8,9,10,11,13a,14,14a,15,16,16a-hexadecahydrocyclopropa[e]pyrrolo[1,2-a][1,4]diazacyclopentadecin-6-yl)carbamate]: the inhibition constant (Ki) was found to be 0.0395 ± 0.0051 µM in assay [1] and 0.00346 ± 0.00026 µM in assay [2].

The Ki is the dissociation constant of the complex between target and ligand, obtained from inhibition or displacement.
